US20110212891A1 (MSD K.K., priority 2008, published 2011)

The molecules below were run against T1, Human DGAT1 (Homo sapiens, UniProt O75907) (assay: DGAT1 Inhibitory Activity Test ([14C]-oleoyl-CoA, DGAT1-expressed yeast membrane fraction)). Details: Table 5, room temperature, 30 minutes.
T1 construct: made in house; host or cells: Pichia pastoris (printed 'Pichia pastris'), vector pPICZA; the membrane fraction served as enzyme source
T1 sequence (O75907 1-488): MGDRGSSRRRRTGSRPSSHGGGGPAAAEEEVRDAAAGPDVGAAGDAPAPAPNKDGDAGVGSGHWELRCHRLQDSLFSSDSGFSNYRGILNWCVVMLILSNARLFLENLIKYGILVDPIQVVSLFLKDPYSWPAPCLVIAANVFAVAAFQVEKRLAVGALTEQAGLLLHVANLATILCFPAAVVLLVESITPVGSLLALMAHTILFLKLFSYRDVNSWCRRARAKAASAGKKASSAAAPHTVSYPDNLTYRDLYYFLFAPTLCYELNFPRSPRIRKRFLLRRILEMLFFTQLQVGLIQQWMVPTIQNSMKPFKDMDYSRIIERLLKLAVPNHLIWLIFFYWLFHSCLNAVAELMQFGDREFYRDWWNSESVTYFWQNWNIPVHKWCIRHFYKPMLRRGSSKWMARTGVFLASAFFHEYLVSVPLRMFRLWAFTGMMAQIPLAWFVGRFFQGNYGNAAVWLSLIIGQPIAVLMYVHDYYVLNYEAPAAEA
Format: biochemical
Procedure: Human DGAT1 genes were amplified by PCR using primers described below from human cDNA library (Clontech).
The amplified human DGAT1 genes were introduced into a yeast expression vector pPICZA (Invitrogen). The resultant expression plasmid was introduced into a yeast (Pichia pastris) by electroporation to produce a recombinant yeast. The recombination yeast was cultured in the presence of 0,5% methanol for 72 hours, and the cells were crushed using glass beads in 10 mM Tris pH 7.5, 250 mM sucrose and 1 mM EDTA, followed by adjusting the membrane fraction by centrifugation to use the adjusted membrane fraction as an enzyme source.
To the reaction liquid having the following composition: 100 mM Tris pH 7.5, 100 mM MgCl2, 100 mM sucrose, 40 μM dioelin, 15 μm [^14C]-oleoyl-CoA, 0.25 μg of test substance, DGAT1-expressed yeast membrane fraction, was added, and the mixture having a volume of 100 μl was incubated at room temperature for 30 minutes. To the reaction liquid, 100 μl of 2-propanol/heptan/H2O (80:20:2) was added, the mixture was stirred well, followed by adding 200 μl of heptane and further stirring the mixture. After centrifugation, the heptane layer was collected, ethanol/0.1N NaOH/H2O (50:5:45) was added, the mixture was thus stirred, followed by recentrifuging the mixture and collecting the heptane layer. After exsiccation of the obtained heptane layer, 100 μl of Microscint 0 (PerkinElmer) was added, and the radioactivity was measured with a liquid scintillation counter. The inhibitory activity was calculated from the following formula:
Inhibition rate=100−(radioactivity in case of addition of test compound−background)/(radioactivity in case of addition of no test compound−background)×100
wherein the background means the radioactivity in case of addition of no membrane fraction.

| IC50 | Compound |
| --- | --- |
| 14 nM | CC(C)(C)OC(=O)NC1(C(=O)NC2CCc3ccccc3N(Cc3ccc(OC(F)(F)F)cc3)C2=O)CCC1 (single isomer, unassigned) [Example 46 Enantiomer B, tert-butyl{1-[({2-oxo-1-[4-(trifluoromethoxy)benzyl]-2,3,4,5-tetrahydro-1H-1-benzazepin-3-yl}amino)carbonyl]cyclobutyl}carbamate] |
| 24 nM | CC(C)(C)OC(=O)NC1(C(=O)N[C@H]2CC(=O)c3ccccc3N(Cc3ccc(-c4ccccc4)cc3)C2=O)CC1 [Example 21] |
| 153 nM | CC(C)(C)OC(=O)NC1(C(=O)NC2CCc3ccccc3N(Cc3ccc(OC(F)(F)F)cc3)C2=O)CCCC1 (single isomer, unassigned) [Example 47 Enantiomer A] |
| 21 nM | CC(C)(C)OC(=O)NC1(C(=O)NC2CCc3ccccc3N(Cc3ccc(OC(F)(F)F)cc3)C2=O)CCCC1 (single isomer, unassigned) [Example 47 Enantiomer B] |
| 189 nM | CC(C)(C)OC(=O)NC1(C(=O)NC2CCc3ccccc3N(Cc3ccc(OC(F)(F)F)cc3)C2=O)CCC1 (single isomer, unassigned) [Example 46 Enantiomer A, tert-butyl{1-[({2-oxo-1-[4-(trifluoromethoxy)benzyl]-2,3,4,5-tetrahydro-1H-1-benzazepin-3-yl}amino)carbonyl]cyclobutyl}carbamate] |
| 858 nM | O=C1C(NC(=O)C2(NC(=O)C3(C(F)(F)F)CC3)CC2)CCc2cc(OC(F)(F)F)ccc2N1Cc1cc(C(F)(F)F)cc(C(F)(F)F)c1 (single isomer, unassigned) [Example 41 Enantiomer B, N-[1-({[1-[3,5-bis(trifluoromethyl)benzyl]-2-oxo-7-(trifluoromethoxy)-2,3,4,5-tetrahydro-1H-1-benzazepin-3-yl]amino}carbonyl)cyclopropyl]-1-(trifluoromethyl)cyclopropane carboxyamide] |
| 137 nM | O=C1C(NC(=O)C2(NC(=O)C3(C(F)(F)F)CC3)CC2)CCc2cc(OC(F)(F)F)ccc2N1Cc1cc(C(F)(F)F)cc(C(F)(F)F)c1 (single isomer, unassigned) [Example 41 Enantiomer A, N-[1-({[1-[3,5-bis(trifluoromethyl)benzyl]-2-oxo-7-(trifluoromethoxy)-2,3,4,5-tetrahydro-1H-1-benzazepin-3-yl]amino}carbonyl)cyclopropyl]-1-(trifluoromethyl)cyclopropane carboxyamide] |

| Compound | IC50 |
| --- | --- |
| O=C(NC1(C(=O)N[C@@H]2CC(=O)c3ccccc3N(Cc3cc(C(F)(F)F)cc(C(F)(F)F)c3)C2=O)CC1)c1ccc(F)c(F)n1 [Example 8] | 85 nM |

Same assay, conditions: Table 6, room temperature, 30 minutes

| IC50 | Compound |
| --- | --- |
| 41 nM | CC(C)(C)OC(=O)NC1(C(=O)N[C@@H]2CC(=O)c3ccccc3N(Cc3cc(C(F)(F)F)cc(C(F)(F)F)c3)C2=O)CCC1 [Example 51, tert-butyl{1-[({(3R)-1-[3,5-bis(trifluoromethyl)benzyl]-2,5-dioxo-2,3,4,5-tetrahydro-1H-1-benzazepin-3-yl}amino)carbonyl]cyclobutyl}carbamate] |
| 253 nM | O=C(NC1(C(=O)N[C@@H]2CC(=O)c3ccccc3N(Cc3cc(C(F)(F)F)cc(C(F)(F)F)c3)C2=O)CCC1)c1nccs1 [Example 52, N-{1-[({(3R)-1-[3,5-bis(trifluoromethyl)benzyl]-2,5-dioxo-2,3,4,5-tetrahydro-1H-1-benzazepin-3-yl}amino)carbonyl]cyclobutyl}-1,3-thiazole-2-carboxamide] |
| 77 nM | O=C(NC1(C(=O)N[C@@H]2CC(=O)c3ccccc3N(Cc3cc(C(F)(F)F)cc(C(F)(F)F)c3)C2=O)CCC1)c1ccc(F)cc1 [Example 53, N-{1-[({(3R)-1-[3,5-bis(trifluoromethyl)benzyl]-2,5-dioxo-2,3,4,5-tetrahydro-1H-1-benzazepin-3-yl}amino)carbonyl]cyclobutyl}-4-fluorobenzamide] |
| 65 nM | O=C(NC1(C(=O)N[C@@H]2CC(=O)c3ccccc3N(Cc3cc(C(F)(F)F)cc(C(F)(F)F)c3)C2=O)CC1)c1nccs1 [Example 50, N-{1-[({(3R)-1-[3,5-bis(trifluoromethyl)benzyl]-2,5-dioxo-2,3,4,5-tetrahydro-1H-1-benzazepin-3-yl}amino)carbonyl}cyclopropyl}-1,3-thiazole-2-carboxamide] |
